According to patent publication US8975267B2, “Tricyclic pyrrolo derivatives, process for their preparation and their use as kinase inhibitors” (Nerviano Medical Sciences S.r.l., priority 2011, dated 2015):
Structures can show the parent of a compound that is named as a salt.

Assays:
PIM-1 = PIM-1 (Homo sapiens (Human), UniProt P11309); assay: Biochemical assay for inhibitors of PIM-1 kinase activity (trans-phosphorylation, Dowex); details: 200 microM ATP, 25 microM Aktide, 1 nM enzyme
Procedure: Biochemical Assay for Inhibitors of PIM-1 Kinase Activity
(§1) The inhibitory activity of putative kinase inhibitors and the potency of selected compounds were determined using a trans-phosphorylation assay.
(§2) Specific peptide or protein substrates are trans-phosphorylated by their specific ser-thr or tyr kinase in the presence of ATP traced with ^33P-γ-ATP, and in the presence of their own optimal buffer and cofactors.
(§3) At the end of the phosphorylation reaction, more than 98% unlabeled ATP and radioactive ATP is captured by an excess of the ion exchange dowex resin; the resin then settles down to the bottom of the reaction plate by gravity.
Supernatant is subsequently withdrawn and transferred into a counting plate, then evaluated by β-counting.
The buffer for PIM-1 assay was composed of HEPES 50 mM, at pH 7.5, with 10 mM MgCl2, 1 mM DTT, 3 microM NaVO3, and 0.2 mg/ml BSA
Full-length human PIM-1 was expressed and purified as described in Bullock A N, et al., J. Biol. Chem. 2005, 280, 41675-82.
ATP concentration: 200 microM
Enzyme concentration: 1 nM
Substrate concentration Aktide (Chemical Abstract Service Registry Number 324029-01-8): 25 microM
For IC50 determination, test compounds are received as a 1 mM solution in 100% DMSO and distributed into 96-well plates: compounds are then plated into the first column of a new 96-well plate (A1 to G1), 100 microL/well.
An automated station (Biomek FX, Beckman) is used for serial dilutions, producing 1:3 dilutions in 100% DMSO, from line A1 to A10, for all the compounds in the column. Moreover, 4-5 copies of daughter plates are prepared by reformatting 5 microL of this first set of 100% DMSO dilution plates into 384-deep well plates: one copy of these serial dilution plates with the test compounds is thawed on the day of study, reconstituted at the working concentration (3-fold the final concentration) with 162 microL/well of water and used for IC50 determination assays. In a standard experiment, the highest concentration (3×) of compounds is typically 30 microM, while the lowest one is typically 1.5 nM.
Each 384-well plate generates at least one curve of the standard inhibitor staurosporine and reference wells (total enzyme activity vs. no enzymatic activity) for evaluation of Z′ and signal to background (S/B) ratio.
384-well plates, V bottom (test plates) are prepared with 5 microL of compound diluted as previously described (3×) and then placed onto a PlateTrak 12 robotized station (Perkin Elmer; the robot has one 384-tip pipetting head for assay start, plus one 96-tip head for dispensing resin) together with one reservoir for Enzyme mix (3×) and one for ATP mix (3×).
Data are analyzed by an internally customized version of the “Assay Explorer” SW package, which provides sigmoidal fitting of the ten-dilution curves for IC50 determination in secondary assay/hit confirmation routines.

MPS1 = MPS1 (Homo sapiens (Human), UniProt P33981); assay: Biochemical assay for inhibitors of MPS1 kinase activity (trans-phosphorylation, Dowex); details: 15 microM ATP, 200 microM P38-βtide substrate, 5 nM MPS1
Procedure: Cloning, Expression and Purification of Recombinant MPS1 Full Length Protein.
MPS1 full length (corresponding to residues 2-857 of the full length sequence, see Swiss-Prot accession number P33981) was PCR amplified from the full-length human MPS1 gene present in house as clone pGEX4t_MPS1.
To get a fully activated enzyme, the protein was then subjected to auto-phosphorylation in presence of ATP 1 mM at 25° C. for 2 hours in kinase buffer (Hepes pH7.5 50 mM, MgCl2 2.5 mM, MnCl2 1 mM, DTT 1 mM, phosphatase inhibitors); ATP was then removed whit a desalting column.
Biochemical Assay for Inhibitors of MPS1 Kinase Activity
as §1, §2
as §3, with “gravity. Supernatant is subsequently withdrawn and transferred into a counting plate, then evaluated by β-counting.” for “gravity.”
The buffer for MPS1 assay was composed of HEPES 50 mM, at pH 7.5, with 2.5 mM MgCl2, 1 mM MnCl2, 1 mM DTT, 3 microM Na3VO4, 2 mM β-glycerophosphate and 0.2 mg/mL BSA.
The assay was run with a final concentration MPS1 of 5 nM, in the presence of 15 microM ATP and 1.5 nM ^33P-γ-ATP; the substrate was P38-βtide, used at 200 microM.
a) for percent inhibition studies (HTS), individual dilution plates at 1 mM are diluted at a 3× concentration (30 microM) in ddH2O (3% DMSO=final concentration) using a Beckman NX automated pipetting platform. The same instrument is used for distributing the diluted mother plates into the test plates. b) for IC50 determination (KSS platform), 100 microL of each compound at 1 mM in 100% DMSO are transferred from the original plate into the first column of another 96 well plate (A1 to G1); well H1 is left empty for the internal standard inhibitor, usually staurosporine.
An automated station for serial dilutions (Biomek FX, Beckman) is used for producing 1:3 dilutions in 100% DMSO, from line A1 to A10, and for all the seven compounds in the column. Moreover, 4-5 copies of daughter plates are prepared by reformatting 5 microL of this first set of 100% DMSO dilution plates into 384 deep well-plates: one copy of the daughter plates with the serial dilutions of test compounds will be thaw the day of the experiments, reconstituted at a 3× concentration with water and used in the IC50 determination assays. In a standard experiment, the highest concentration (3×) of all compounds is 30 microM, while the lowest one is 1.5 nM.
384-well plates, V bottom (test plates) are prepared with 5 microL of the compound dilution (3×) and then placed onto a PlateTrak 12 robotized station (Perkin Elmer; the robot has one 384-tips pipetting head for starting the assay plus one 96-tips head for dispensing the resin) together with one reservoir for the Enzyme mix (3×) and one for the ATP mix (3×).
At the start of the run, the robot aspirates 5 microL of ATP mix, makes an air gap inside the tips (2 microL) and aspirates 5 microL of MPS1 mix. The following dispensation into the plates allows the kinase reaction to start upon 3 cycles of mixing, done by the robot itself.
The robot incubates the plates for 60 minutes at room temperature, and then stops the reaction by pipetting 70 microL of dowex resin suspension into the reaction mix. Three cycles of mixing are done immediately after the addition of the resin.
Another mixing cycle is performed after all the plates are stopped, this time using normal tips: the plates are then allowed to rest for about one hour in order to maximize ATP capture. […]

PIM-2 = PIM-2 (Homo sapiens (Human), UniProt Q9P1W9); assay: PIM-2 kinase inhibition assay: Dowex technique; assay type: biochemical; details: 4 microM ATP, 5 microM Aktide, 1.5 nM enzyme
Procedure: Method for PIM-2 Kinase Inhibition Assay: Dowex Technique
The buffer for PIM-2 assay was composed of HEPES 50 mM, at pH 7.5, with 1 mM MgCl2, 1 mM DTT, 3 microM Na3VO4, and 0.2 mg/mL BSA
Full-length human PIM-2 was expressed and purified as described in Fedorov O, et al., PNAS 2007 104, 51, 20523-28.
Enzyme concentration=1.5 nM
Aktide substrate (Chemical Abstract Service Registry Number 324029-01-8)=5 microM
See above: same procedure as described for PIM-1.

Sequence of PIM-2 (Q9P1W9 whole entry): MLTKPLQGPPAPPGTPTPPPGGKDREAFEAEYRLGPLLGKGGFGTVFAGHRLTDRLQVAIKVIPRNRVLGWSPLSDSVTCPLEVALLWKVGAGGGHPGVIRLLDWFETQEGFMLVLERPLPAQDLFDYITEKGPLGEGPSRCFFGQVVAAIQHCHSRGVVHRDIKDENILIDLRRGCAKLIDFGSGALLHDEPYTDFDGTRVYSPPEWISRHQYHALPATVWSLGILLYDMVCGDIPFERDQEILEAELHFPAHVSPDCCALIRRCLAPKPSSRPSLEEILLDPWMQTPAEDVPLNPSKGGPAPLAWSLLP
Sequence of MPS1 (P33981 2-857): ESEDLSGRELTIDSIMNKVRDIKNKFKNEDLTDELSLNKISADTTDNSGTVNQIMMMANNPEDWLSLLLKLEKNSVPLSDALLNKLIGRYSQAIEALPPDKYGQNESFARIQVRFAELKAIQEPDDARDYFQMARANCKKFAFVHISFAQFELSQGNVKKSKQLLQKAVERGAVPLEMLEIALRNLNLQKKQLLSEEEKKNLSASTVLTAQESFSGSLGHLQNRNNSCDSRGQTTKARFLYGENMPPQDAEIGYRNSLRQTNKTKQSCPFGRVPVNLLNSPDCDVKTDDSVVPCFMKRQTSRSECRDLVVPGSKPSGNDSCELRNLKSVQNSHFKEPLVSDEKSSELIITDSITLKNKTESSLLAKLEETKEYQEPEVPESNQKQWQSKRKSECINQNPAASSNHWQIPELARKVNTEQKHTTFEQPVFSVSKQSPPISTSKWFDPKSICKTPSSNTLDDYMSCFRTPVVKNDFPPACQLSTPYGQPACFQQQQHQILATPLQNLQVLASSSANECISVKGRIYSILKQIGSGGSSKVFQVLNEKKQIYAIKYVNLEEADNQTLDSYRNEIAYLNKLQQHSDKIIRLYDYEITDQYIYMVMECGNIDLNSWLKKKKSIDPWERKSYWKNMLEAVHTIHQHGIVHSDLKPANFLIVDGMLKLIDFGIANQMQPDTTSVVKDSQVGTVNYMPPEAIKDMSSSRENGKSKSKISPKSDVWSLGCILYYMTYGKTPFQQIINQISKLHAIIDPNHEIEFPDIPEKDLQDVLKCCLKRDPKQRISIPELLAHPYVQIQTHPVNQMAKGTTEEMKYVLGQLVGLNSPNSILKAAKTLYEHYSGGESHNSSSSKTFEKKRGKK
Sequence of PIM-1 (P11309 whole entry): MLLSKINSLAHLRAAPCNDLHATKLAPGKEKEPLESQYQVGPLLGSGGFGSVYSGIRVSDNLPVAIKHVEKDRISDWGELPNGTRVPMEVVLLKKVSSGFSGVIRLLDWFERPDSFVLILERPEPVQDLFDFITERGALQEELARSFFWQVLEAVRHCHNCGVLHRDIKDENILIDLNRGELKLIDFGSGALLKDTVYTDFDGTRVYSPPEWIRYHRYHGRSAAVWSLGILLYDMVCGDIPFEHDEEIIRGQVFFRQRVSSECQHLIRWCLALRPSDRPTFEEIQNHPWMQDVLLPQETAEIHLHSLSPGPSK

SMILES	IC50 (PIM-1) [nM]	IC50 (MPS1) [nM]	IC50 (PIM-2) [nM]
CSc1ncc2ccc3c(C(N)=O)cn([C@H]4CC[C@@H](N)CC4)c3c2n1 [Compound 34, 9-(cis-4-aminocyclohexyl)-2-(methylsulfanyl)-9H-pyrrolo[3,2-h]quinazoline-7-carboxamide]	0.8	855	1
CSc1ncc2ccc3c(C(N)=O)c(C)n(CCO)c3c2n1 [Compound 29, 9-(2-hydroxyethyl)-8-methyl-2-(methylsulfanyl)-9H-pyrrolo[3,2-h]quinazoline-7-carboxamide]	87	2940	408
CSc1ncc2ccc3c(C(N)=O)c(C)n(C(C)C)c3c2n1 [Compound 30, 8-methyl-2-(methylsulfanyl)-9-(propan-2-yl)-9H-pyrrolo[3,2-h]quinazoline-7-carboxamide]	4	622	12
CSc1ncc2c(n1)-c1c(c(C(N)=O)cn1C(C)C)CC2 [Compound 22, 2-(methylsulfanyl)-9-(propan-2-yl)-6,9-dihydro-5H-pyrrolo[3,2-h]quinazoline-7-carboxamide]	16	382	24
CCc1cccc(CC)c1NC(=O)c1cn(C)c2c1CCCc1cnc(Nc3ccc(N4CCN(C)CC4)cc3OC)nc1-2 [Compound 16, N-(2,6-diethylphenyl)-2-{[2-methoxy-4-(4-methylpiperazin-1-yl)phenyl]amino}-10-methyl-5,6,7,10-tetrahydropyrrolo[3′,2′:6,7]cyclohepta[1,2-d]pyrimidine-8-carboxamide]	> 10000	132	> 10000
CSc1ncc2c(n1)-c1c(c(C(N)=O)cn1C1CCNCC1)CC2 [Compound 32, 2-(methylsulfanyl)-9-(piperidin-4-yl)-6,9-dihydro-5H-pyrrolo[3,2-h]quinazoline-7-carboxamide hydrochloride]	74	> 10000	159
Cn1c(-c2ccccc2)c(C(N)=O)c2ccc3cnc(N)nc3c21 [compound 4, 2-amino-9-methyl-8-phenyl-9H-pyrrolo[3,2-h]quinazoline-7-carboxamide, reference compound]	> 5000	> 5000	> 10000
CSc1ncc2ccc3c(C(N)=O)cn(CC(C)(C)CN)c3c2n1 [Compound 38, 9-(3-amino-2,2-dimethylpropyl)-2-(methylsulfanyl)-9H-pyrrolo[3,2-h]quinazoline-7-carboxamide hydrochloride]	24	2940	34
CSc1ncc2ccc3c(C(N)=O)c[nH]c3c2n1 [Compound 36, 2-(methylsulfanyl)-9H-pyrrolo[3,2-h]quinazoline-7-carboxamide]	13	814	46
CSc1ncc2c(n1)-c1c(c(C(N)=O)cn1[C@H]1CC[C@@H](N)CC1)CC2 [Compound 33, 9-(cis 4-aminocyclohexyl)-2-(methylsulfanyl)-6,9-dihydro-5H-pyrrolo[3,2-h]quinazoline-7-carboxamide hydrochloride]	5	1550	7
NC(=O)c1c(-c2ccccc2)[nH]c2c1ccc1cnc(N)nc12 [compound 2, 2-amino-8-phenyl-9H-pyrrolo[3,2-h]quinazoline-7-carboxamide, reference compound]	> 5000	> 5000	> 10000
Cn1c2c(c(C(N)=O)c1-c1ccccc1)CCc1cnc(N)nc1-2 [compound 3, 2-amino-9-methyl-8-phenyl-6,9-dihydro-5H-pyrrolo[3,2-h]quinazoline-7-carboxamide, reference compound]	> 5000	> 5000	> 10000
CCc1cccc(CC)c1NC(=O)c1c2c(n(C)c1C)-c1nc(Nc3ccc(N4CCC(N5CCCC5)CC4)cc3OC)ncc1CC2 [Compound 3, N-(2,6-diethylphenyl)-2-({2-methoxy-4-[4-(pyrrolidin-1-yl)piperidin-1-yl]phenyl}amino)-8,9-dimethyl-6,9-dihydro-5H-pyrrolo[3,2-h]quinazoline-7-carboxamide]	> 10000	99	> 10000
CSc1ncc2c(n1)-c1c(c(C(N)=O)cn1CCO)CC2 [Compound 25, 9-(2-hydroxyethyl)-2-(methylsulfanyl)-6,9-dihydro-5H-pyrrolo[3,2-h]quinazoline-7-carboxamide]	133	2440	540
Cn1cc(C(N)=O)c2c1-c1nc(N)ncc1CC2 [Ref. cmpound 1, 2-amino-9-methyl-6,9-dihydro-5H-pyrrolo[3,2-h]quinazoline-7-carboxamide, reference compound]	> 10000	> 10000	> 10000
CSc1ncc2ccc3c(C(N)=O)cn(C4CCNCC4)c3c2n1 [Compound 35, 2-(methylsulfanyl)-9-(piperidin-4-yl)-9H-pyrrolo[3,2-h]quinazoline-7-carboxamide]	7	4550	23
COc1cc(N2CCN(C)CC2)ccc1Nc1ncc2c(n1)-c1c(c(C(N)=O)c(C)n1C)CC2 [Compound 7, 2-{[2-methoxy-4-(4-methylpiperazin-1-yl)phenyl]amino}-8,9-dimethyl-6,9-dihydro-5H-pyrrolo[3,2-h]quinazoline-7-carboxamide]	748	23	> 5000
